For orientation: EC50 means the concentration that produces a half-maximal response. Read a high EC50 as lower potency in that assay. Usually IC50 stands for the concentration at which inhibition is half-maximal.

One assay deals with T1, Kv7.3 (Homo sapiens, UniProt O43525).
T1 construct: expressed in transfected cells; host or cells: Xenopus laevis oocytes
The assay can be described thus: Two-electrode current recording of human KCNQ (Kv7) channels heterologously expressed in Xenopus laevis oocytes. The format is cell-based. To be noted: different concentrations. The text has this: (§1) Rottlerin was applied at different concentrations to the expressed Kv7 channels.

The target of another assay is T2, Kv7.1/KCNE1 (Homo sapiens, UniProt P51787).
T2 construct: expressed in transfected cells; host or cells: Xenopus laevis oocytes
The assay is described as above. The format is cell-based.
Excerpt: as §1

The target of the next assay is T3, Kv7.5 (Homo sapiens, UniProt Q9NR82).
T3 construct: expressed in transfected cells; host or cells: Xenopus laevis oocytes
The description is as above. The format is cell-based. To be noted: different concentrations.
Excerpt: as §1

A further assay has as its target T4, Kv7.4 (Homo sapiens, UniProt P56696).
T4 construct: expressed in transfected cells; host or cells: Xenopus laevis oocytes
Described as above. The format is cell-based.
Excerpt: as §1

For another assay, the target named is T5, Kv7.1 (Homo sapiens, UniProt P51787).
T5 construct: expressed in transfected cells; host or cells: Xenopus laevis oocytes
Described as above. It is filed as cell-based.
Excerpt: as §1

In the next assay the target is T6, Kv7.2 (Homo sapiens, UniProt O43526).
T6 construct: expressed in transfected cells; host or cells: Xenopus laevis oocytes
The description is as above. To be noted: different concentrations. It is filed as cell-based.
Excerpt: as §1

The next assay concerns other PKC isozymes. To be noted: in vitro studies; cited from earlier work.
The target of another assay is PKCδ (Homo sapiens, UniProt Q05655). To be noted: in vitro studies; cited from earlier work.

The structures appear in SMILES notation.

T4 sequence (P56696 whole entry): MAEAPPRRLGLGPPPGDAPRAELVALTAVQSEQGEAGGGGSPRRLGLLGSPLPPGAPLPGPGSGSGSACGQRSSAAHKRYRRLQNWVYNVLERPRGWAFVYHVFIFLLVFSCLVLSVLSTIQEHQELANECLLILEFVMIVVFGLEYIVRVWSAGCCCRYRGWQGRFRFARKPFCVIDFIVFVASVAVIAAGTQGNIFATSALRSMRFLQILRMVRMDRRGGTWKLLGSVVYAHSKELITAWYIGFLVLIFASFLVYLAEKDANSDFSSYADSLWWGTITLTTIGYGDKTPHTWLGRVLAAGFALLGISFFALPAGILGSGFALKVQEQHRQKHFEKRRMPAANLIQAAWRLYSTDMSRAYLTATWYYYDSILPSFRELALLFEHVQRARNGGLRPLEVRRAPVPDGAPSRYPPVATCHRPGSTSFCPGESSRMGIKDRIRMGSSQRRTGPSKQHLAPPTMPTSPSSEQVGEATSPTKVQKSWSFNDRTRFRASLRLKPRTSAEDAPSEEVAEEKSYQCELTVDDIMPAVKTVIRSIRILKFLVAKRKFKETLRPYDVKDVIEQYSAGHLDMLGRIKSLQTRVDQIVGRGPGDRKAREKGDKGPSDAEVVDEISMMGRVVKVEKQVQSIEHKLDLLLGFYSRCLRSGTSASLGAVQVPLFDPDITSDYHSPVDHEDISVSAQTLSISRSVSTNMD
T2 sequence (P51787 whole entry): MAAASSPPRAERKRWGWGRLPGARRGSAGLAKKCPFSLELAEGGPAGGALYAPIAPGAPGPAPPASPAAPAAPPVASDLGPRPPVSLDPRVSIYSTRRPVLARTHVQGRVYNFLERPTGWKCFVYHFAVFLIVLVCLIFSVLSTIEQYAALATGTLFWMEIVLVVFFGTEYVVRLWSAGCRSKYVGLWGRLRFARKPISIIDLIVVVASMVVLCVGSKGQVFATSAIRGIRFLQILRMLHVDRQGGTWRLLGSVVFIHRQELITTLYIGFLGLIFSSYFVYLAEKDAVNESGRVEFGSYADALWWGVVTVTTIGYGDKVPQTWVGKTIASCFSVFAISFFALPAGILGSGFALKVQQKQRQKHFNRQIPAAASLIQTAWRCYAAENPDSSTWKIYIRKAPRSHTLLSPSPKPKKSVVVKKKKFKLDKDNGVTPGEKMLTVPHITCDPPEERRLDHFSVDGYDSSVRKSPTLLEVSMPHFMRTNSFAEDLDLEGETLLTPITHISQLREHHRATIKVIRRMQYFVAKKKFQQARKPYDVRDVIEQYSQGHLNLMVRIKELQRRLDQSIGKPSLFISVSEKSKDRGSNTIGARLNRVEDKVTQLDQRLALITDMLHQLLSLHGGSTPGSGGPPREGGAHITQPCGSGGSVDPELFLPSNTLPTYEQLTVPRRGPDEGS
T5 sequence (P51787 whole entry): as above
T6 sequence (O43526 whole entry): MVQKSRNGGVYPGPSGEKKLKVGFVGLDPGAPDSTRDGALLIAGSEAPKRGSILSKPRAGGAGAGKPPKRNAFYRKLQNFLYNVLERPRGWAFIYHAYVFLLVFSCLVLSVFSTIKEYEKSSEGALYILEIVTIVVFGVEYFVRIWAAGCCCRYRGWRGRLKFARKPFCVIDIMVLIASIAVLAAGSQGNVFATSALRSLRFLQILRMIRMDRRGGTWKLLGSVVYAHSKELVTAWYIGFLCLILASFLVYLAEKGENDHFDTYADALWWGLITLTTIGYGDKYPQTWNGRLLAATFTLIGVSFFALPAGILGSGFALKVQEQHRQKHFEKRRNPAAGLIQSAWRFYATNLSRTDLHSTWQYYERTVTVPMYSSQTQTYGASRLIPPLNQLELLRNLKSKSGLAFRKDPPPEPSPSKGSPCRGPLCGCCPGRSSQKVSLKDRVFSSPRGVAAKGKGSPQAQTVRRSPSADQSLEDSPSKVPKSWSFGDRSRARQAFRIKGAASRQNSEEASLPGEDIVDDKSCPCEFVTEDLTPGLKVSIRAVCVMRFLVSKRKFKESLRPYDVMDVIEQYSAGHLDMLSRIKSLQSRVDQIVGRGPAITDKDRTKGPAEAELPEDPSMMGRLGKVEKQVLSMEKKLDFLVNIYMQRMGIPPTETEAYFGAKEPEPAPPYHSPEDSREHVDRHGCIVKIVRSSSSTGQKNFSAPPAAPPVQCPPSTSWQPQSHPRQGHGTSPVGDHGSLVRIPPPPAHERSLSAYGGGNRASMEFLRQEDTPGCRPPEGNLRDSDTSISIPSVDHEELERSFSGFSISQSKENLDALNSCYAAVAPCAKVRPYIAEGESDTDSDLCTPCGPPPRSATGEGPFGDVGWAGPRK
T3 sequence (Q9NR82 whole entry): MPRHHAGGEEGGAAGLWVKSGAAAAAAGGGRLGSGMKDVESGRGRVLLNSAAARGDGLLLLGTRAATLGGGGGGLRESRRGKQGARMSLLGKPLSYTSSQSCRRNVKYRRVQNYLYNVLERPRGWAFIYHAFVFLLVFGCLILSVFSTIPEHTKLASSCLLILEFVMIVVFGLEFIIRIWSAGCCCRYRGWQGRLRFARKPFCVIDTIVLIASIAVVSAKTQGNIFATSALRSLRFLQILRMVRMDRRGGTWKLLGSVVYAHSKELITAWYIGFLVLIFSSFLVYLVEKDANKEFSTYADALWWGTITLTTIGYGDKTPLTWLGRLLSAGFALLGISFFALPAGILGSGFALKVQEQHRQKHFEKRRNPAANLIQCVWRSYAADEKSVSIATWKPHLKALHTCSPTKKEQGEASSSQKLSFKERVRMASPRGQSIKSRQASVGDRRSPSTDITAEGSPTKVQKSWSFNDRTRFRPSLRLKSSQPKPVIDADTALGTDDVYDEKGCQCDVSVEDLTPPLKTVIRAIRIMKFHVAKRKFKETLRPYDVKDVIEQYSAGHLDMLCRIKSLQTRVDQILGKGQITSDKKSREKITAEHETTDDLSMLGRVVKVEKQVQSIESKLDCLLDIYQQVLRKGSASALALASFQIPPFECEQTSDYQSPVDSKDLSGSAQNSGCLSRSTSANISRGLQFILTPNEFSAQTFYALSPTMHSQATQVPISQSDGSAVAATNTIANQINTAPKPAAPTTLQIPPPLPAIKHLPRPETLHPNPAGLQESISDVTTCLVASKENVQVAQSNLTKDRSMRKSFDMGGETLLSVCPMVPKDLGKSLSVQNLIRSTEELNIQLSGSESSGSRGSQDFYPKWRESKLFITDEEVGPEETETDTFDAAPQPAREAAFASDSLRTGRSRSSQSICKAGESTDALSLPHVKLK
Chain of PKCδ (Q05655 whole entry): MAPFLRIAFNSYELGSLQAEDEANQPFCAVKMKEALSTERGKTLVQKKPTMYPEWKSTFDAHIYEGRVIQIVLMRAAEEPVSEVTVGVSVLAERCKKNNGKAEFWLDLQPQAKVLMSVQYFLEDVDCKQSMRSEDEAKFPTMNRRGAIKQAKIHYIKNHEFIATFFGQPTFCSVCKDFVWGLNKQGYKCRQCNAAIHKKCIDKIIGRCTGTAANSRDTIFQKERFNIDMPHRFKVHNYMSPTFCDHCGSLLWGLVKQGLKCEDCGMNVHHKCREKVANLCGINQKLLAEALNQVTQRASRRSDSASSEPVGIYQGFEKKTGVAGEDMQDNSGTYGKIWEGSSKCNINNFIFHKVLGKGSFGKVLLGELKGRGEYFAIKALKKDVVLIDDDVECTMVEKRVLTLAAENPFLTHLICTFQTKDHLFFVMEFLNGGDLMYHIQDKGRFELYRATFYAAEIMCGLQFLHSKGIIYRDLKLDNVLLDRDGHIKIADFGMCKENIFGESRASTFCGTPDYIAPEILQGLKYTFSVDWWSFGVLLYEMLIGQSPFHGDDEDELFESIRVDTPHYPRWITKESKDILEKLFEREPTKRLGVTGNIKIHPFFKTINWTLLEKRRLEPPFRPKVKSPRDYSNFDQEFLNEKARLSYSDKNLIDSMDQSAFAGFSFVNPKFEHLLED

Take `CC(=O)c1c(O)c(C)c(O)c(Cc2c(O)c3c(c(C(=O)/C=C/c4ccccc4)c2O)OC(C)(C)C=C3)c1O` [rottlerin, 5,7-dihydroxy-2,2-dimethyl-6-(2,4,6-trihydroxy-3-methyl-5-acetylbenzyl)-8-cinnamoyl-1,2-chromene]: the effect on currents entry at Kv7.3 is listed as “no significant effect”; on Kv7.1/KCNE1 (Kv7.1/KCNE1, different concentrations), “significant robust activation”; on Kv7.5, “no significant effect”; on Kv7.4 (Kv7.4, different concentrations), “significant robust activation”; on Kv7.1 (Kv7.1, different concentrations), “significant robust activation”; at Kv7.2, “no significant effect”. The values for the EC50 at Kv7.1/KCNE1, at Kv7.4 and on Kv7.1 were 4.9 µM, 0.148 µM and 1.48 µM, respectively. The “potency on Kv7.4 relative to Kv7.1/KCNE1” value at Kv7.4 (more potent on Kv7.4 than on cardiac and epithelial Kv7.1/KCNE1) is recorded as “about 30 fold”. The IC50 in the assay on other PKC isozymes was 30 to 100 µM; at PKCδ, 3 to 6 µM.

The record behind these values is patent EP2578210A1, “Rottlerin for the treatment of pulmonary hypertension and related diseases and disorders” (ATB Innovation Ltd., priority 2011, dated 2013).
